{"source": "patent US20020137929A1", "about": "“1 - (3-heterocyclylphenyl) isothiourea, -isourea, -guanidine and -amidine herbicidal agents” (Intellectual Property Department, BASF Aktiengesellschaft, priority 1998, published 2002)", "key": {"[1]": {"test_system": "ZEAMX (Corn, Field)", "assay": "Postemergence herbicidal evaluation", "format": "in vivo, Zea mays", "conditions": "postemergence", "summary_of_the_method": "(§1)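 ~2-wk seedlings; postemergence spray, 40 psi; vehicle 1:1 acetone:water + 0.5% Tween 20; rate ≈0.0156–0.500 kg/ha; greenhouse hold; scored 4–5 wk after treatment, 0–9 scale vs control; repeat tests averaged.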"}, "[2]": {"test_system": "CYPSE (Flatsedge)", "assay": "Preemergence weed control under flooded paddy conditions", "format": "in vivo, Cyperus serotinus", "conditions": "rated 3-4 weeks after treatment", "summary_of_the_method": "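Herbicidal effect is scored visually on a 0-9 scale against an untreated control, three to four weeks after compounds are pipetted into the flood water (1.5 to 3 cm deep) over seeds planted in silt loam at 0.5 cm depth. Rates: about 0.0313 to 0.500 kg/ha.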"}, "[3]": {"test_system": "ORYSAT (Rice, Tebonnet)", "assay": "Postemergence herbicidal evaluation", "format": "in vivo, Oryza sativa, (L.) Tebonnet", "conditions": "postemergence", "summary_of_the_method": "as §1"}, "[4]": {"test_system": "CHEAL (Lambsquarters, Common)", "assay": "Preemergence herbicidal evaluation", "format": "in vivo, Chenopodium album", "conditions": "preemergence, rated 4-5 weeks after treatment, 0-9 scale", "summary_of_the_method": "(§2)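 Each species is sown separately in potting soil over roughly an inch of soil before any emergence. The soil surface then receives an aqueous acetone spray delivering about 0.0156 to 0.500 kg/ha of compound. After four to five weeks, injury is scored from 0 to 9 relative to a control.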"}, "[5]": {"test_system": "CHEAL (Lambsquarters, Common)", "assay": "Postemergence herbicidal evaluation", "format": "in vivo, Chenopodium album", "conditions": "postemergence", "summary_of_the_method": "as §1"}, "[6]": {"test_system": "GLXMAW (Soybean, Williams)", "assay": "Postemergence herbicidal evaluation", "format": "in vivo, Glycine max, (L.) Merr. cv Williams", "conditions": "postemergence", "summary_of_the_method": "as §1"}, "[7]": {"test_system": "ABUTH (Velvetleaf)", "assay": "Postemergence herbicidal evaluation", "format": "in vivo, Abutilon theophrasti", "conditions": "postemergence", "summary_of_the_method": "as §1"}, "[8]": {"test_system": "GALAP (Galium)", "assay": "Preemergence herbicidal evaluation", "format": "in vivo, Galium aparine", "conditions": "preemergence, rated 4-5 weeks after treatment, 0-9 scale", "summary_of_the_method": "as §2"}, "[9]": {"test_system": "CASOB (Sicklepod)", "assay": "Preemergence herbicidal evaluation", "format": "in vivo, Cassia obtusifolia", "conditions": "preemergence, rated 4-5 weeks after treatment, 0-9 scale", "summary_of_the_method": "as §2"}, "[10]": {"test_system": "AMBEL (Ragweed, Common)", "assay": "Postemergence herbicidal evaluation", "format": "in vivo, Ambrosia artemisifolia", "conditions": "postemergence", "summary_of_the_method": "as §1"}, "[11]": {"test_system": "CYPIR (Rice Flatsedge)", "assay": "Postemergence weed control under flooded paddy conditions", "format": "in vivo, Cyperus iria", "conditions": "postemergence weeds, rated 3 to 4 weeks after treatment", "summary_of_the_method": "(§3)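 Herbicidal effect is judged by eye on a 0–9 scale versus control, 3–4 weeks after dosing. Dosing is into flood water kept 1.5–3 cm over the soil, at about 0.0313–0.500 kg/ha in aqueous/acetone 50/50 v/v, on 3–5 cm weeds and 1.5–2.5-leaf rice seedlings.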"}, "[12]": {"test_system": "ECHCG (Barnyardgrass)", "assay": "Postemergence herbicidal evaluation", "format": "in vivo, Echinochloa crus-galli", "conditions": "postemergence", "summary_of_the_method": "as §1"}, "[13]": {"test_system": "AMBEL (Ragweed, Common)", "assay": "Preemergence herbicidal evaluation", "format": "in vivo, Ambrosia artemisifolia", "conditions": "preemergence, rated 4-5 weeks after treatment, 0-9 scale", "summary_of_the_method": "as §2"}, "[14]": {"test_system": "CYPSE (Flatsedge)", "assay": "Postemergence weed control under flooded paddy conditions", "format": "in vivo, Cyperus serotinus", "conditions": "postemergence weeds, rated 3 to 4 weeks after treatment", "summary_of_the_method": "as §3"}}, "data": [{"compound": "C=CCN1C(=O)C(CC(=O)OCCF)SC1=Nc1cc(-n2c(=O)cc(C(F)(F)F)n(C)c2=O)c(F)cc1Cl", "note": "(stereo not shown) [Compound 86, 2-Fluoroethyl 3-allyl-2-{{2-chloro-5-[3,6-dihydro-3-methyl-2,6-dioxo-4-(trifluoromethyl)-1(2H)-pyrimidinyl]-4-fluorophenyl}imino}-4-oxo-5-thiazolidineacetate]", "values": [{"measurement": "ZEAMX herbicidal rating", "setting": "[1]; rate 0.0156 kg/ha", "value": 7.5}, {"measurement": "ZEAMX herbicidal rating", "setting": "[1]; rate 0.0313 kg/ha", "value": 8.0}, {"measurement": "ZEAMX herbicidal rating", "setting": "[1]; rate 0.0625 kg/ha", "value": 8.5}, {"measurement": "ZEAMX herbicidal rating", "setting": "[1]; rate 0.1250 kg/ha", "value": 9.0}, {"measurement": "CYPSE herbicidal effect rating", "setting": "[2]; 0.0313 kg/ha", "value": 0.0}, {"measurement": "CYPSE herbicidal effect rating", "setting": "[2]; 0.0625 kg/ha", "value": 0.0}, {"measurement": "CYPSE herbicidal effect rating", "setting": "[2]; 0.1250 kg/ha", "value": 3.0}, {"measurement": "CYPSE herbicidal effect rating", "setting": "[2]; 0.2500 kg/ha", "value": 9.0}, {"measurement": "ORYSAT herbicidal rating", "setting": "[3]; rate 0.0156 kg/ha", "value": 3.0}, {"measurement": "ORYSAT herbicidal rating", "setting": "[3]; rate 0.0313 kg/ha", "value": 7.5}, {"measurement": "ORYSAT herbicidal rating", "setting": "[3]; rate 0.0625 kg/ha", "value": 7.5}, {"measurement": "ORYSAT herbicidal rating", "setting": "[3]; rate 0.1250 kg/ha", "value": 8.5}, {"measurement": "CHEAL rating", "setting": "[4]; 0.0156 kg/ha", "value": 4.0}, {"measurement": "CHEAL rating", "setting": "[4]; 0.0313 kg/ha", "value": 4.0}, {"measurement": "CHEAL rating", "setting": "[4]; 0.0625 kg/ha", "value": 9.0}, {"measurement": "CHEAL rating", "setting": "[4]; 0.1250 kg/ha", "value": 9.0}, {"measurement": "CHEAL rating", "setting": "[4]; 0.2500 kg/ha", "value": 9.0}, {"measurement": "CHEAL rating", "setting": "[4]; 0.5000 kg/ha", "value": 9.0}, {"measurement": "CHEAL herbicidal rating", "setting": "[5]; rate 0.0156 kg/ha", "value": 9.0}, {"measurement": "CHEAL herbicidal rating", "setting": "[5]; rate 0.0313 kg/ha", "value": 9.0}, {"measurement": "CHEAL herbicidal rating", "setting": "[5]; rate 0.0625 kg/ha", "value": 9.0}, {"measurement": "CHEAL herbicidal rating", "setting": "[5]; rate 0.1250 kg/ha", "value": 9.0}, {"measurement": "GLXMAW herbicidal rating", "setting": "[6]; rate 0.0156 kg/ha", "value": 8.5}, {"measurement": "GLXMAW herbicidal rating", "setting": "[6]; rate 0.0313 kg/ha", "value": 9.0}, {"measurement": "GLXMAW herbicidal rating", "setting": "[6]; rate 0.0625 kg/ha", "value": 9.0}, {"measurement": "GLXMAW herbicidal rating", "setting": "[6]; rate 0.1250 kg/ha", "value": 9.0}, {"measurement": "ABUTH herbicidal rating", "setting": "[7]; rate 0.0156 kg/ha", "value": 9.0}, {"measurement": "ABUTH herbicidal rating", "setting": "[7]; rate 0.0313 kg/ha", "value": 9.0}, {"measurement": "ABUTH herbicidal rating", "setting": "[7]; rate 0.0625 kg/ha", "value": 9.0}, {"measurement": "ABUTH herbicidal rating", "setting": "[7]; rate 0.1250 kg/ha", "value": 9.0}, {"measurement": "GALAP rating", "setting": "[8]; 0.0156 kg/ha", "value": 0.0}, {"measurement": "GALAP rating", "setting": "[8]; 0.0313 kg/ha", "value": 0.0}, {"measurement": "GALAP rating", "setting": "[8]; 0.0625 kg/ha", "value": 0.0}, {"measurement": "GALAP rating", "setting": "[8]; 0.1250 kg/ha", "value": 0.0}, {"measurement": "GALAP rating", "setting": "[8]; 0.2500 kg/ha", "value": 9.0}, {"measurement": "GALAP rating", "setting": "[8]; 0.5000 kg/ha", "value": 9.0}, {"measurement": "CASOB rating", "setting": "[9]; 0.0156 kg/ha", "value": 0.0}, {"measurement": "CASOB rating", "setting": "[9]; 0.0313 kg/ha", "value": 0.0}, {"measurement": "CASOB rating", "setting": "[9]; 0.0625 kg/ha", "value": 0.0}, {"measurement": "CASOB rating", "setting": "[9]; 0.1250 kg/ha", "value": 0.0}, {"measurement": "CASOB rating", "setting": "[9]; 0.2500 kg/ha", "value": 0.0}, {"measurement": "CASOB rating", "setting": "[9]; 0.5000 kg/ha", "value": 3.0}, {"measurement": "AMBEL herbicidal rating", "setting": "[10]; rate 0.0156 kg/ha", "value": 9.0}, {"measurement": "AMBEL herbicidal rating", "setting": "[10]; rate 0.0313 kg/ha", "value": 9.0}, {"measurement": "AMBEL herbicidal rating", "setting": "[10]; rate 0.0625 kg/ha", "value": 9.0}, {"measurement": "AMBEL herbicidal rating", "setting": "[10]; rate 0.1250 kg/ha", "value": 9.0}, {"measurement": "Herbicidal rating CYPIR", "setting": "[11]; Rate 0.0313 kg/ha", "value": 3.0}, {"measurement": "Herbicidal rating CYPIR", "setting": "[11]; Rate 0.0625 kg/ha", "value": 7.0}, {"measurement": "Herbicidal rating CYPIR", "setting": "[11]; Rate 0.1250 kg/ha", "value": 8.0}, {"measurement": "Herbicidal rating CYPIR", "setting": "[11]; Rate 0.2500 kg/ha", "value": 9.0}, {"measurement": "ECHCG herbicidal rating", "setting": "[12]; rate 0.0156 kg/ha", "value": 3.0}, {"measurement": "ECHCG herbicidal rating", "setting": "[12]; rate 0.0313 kg/ha", "value": 9.0}, {"measurement": "ECHCG herbicidal rating", "setting": "[12]; rate 0.0625 kg/ha", "value": 9.0}, {"measurement": "ECHCG herbicidal rating", "setting": "[12]; rate 0.1250 kg/ha", "value": 9.0}, {"measurement": "AMBEL rating", "setting": "[13]; 0.0156 kg/ha", "value": 0.0}, {"measurement": "AMBEL rating", "setting": "[13]; 0.0313 kg/ha", "value": 0.0}, {"measurement": "AMBEL rating", "setting": "[13]; 0.0625 kg/ha", "value": 6.0}, {"measurement": "AMBEL rating", "setting": "[13]; 0.1250 kg/ha", "value": 9.0}, {"measurement": "AMBEL rating", "setting": "[13]; 0.2500 kg/ha", "value": 9.0}, {"measurement": "AMBEL rating", "setting": "[13]; 0.5000 kg/ha", "value": 9.0}, {"measurement": "Herbicidal rating CYPSE", "setting": "[14]; Rate 0.0313 kg/ha", "value": 0.0}, {"measurement": "Herbicidal rating CYPSE", "setting": "[14]; Rate 0.0625 kg/ha", "value": 0.0}, {"measurement": "Herbicidal rating CYPSE", "setting": "[14]; Rate 0.1250 kg/ha", "value": 3.0}, {"measurement": "Herbicidal rating CYPSE", "setting": "[14]; Rate 0.2500 kg/ha", "value": 9.0}]}]}
